Measurements from ChEMBL document CHEMBL3627608, “Crystal structures of human RIP2 kinase catalytic domain complexed with ATP-competitive inhibitors: Foundations for understanding inhibitor selectivity” (Bioorg Med Chem, 2015).

How the values were obtained:
[1] = molecular target: T1, Ephrin type-B receptor 4 (Homo sapiens) (UniProt P54760); assay: Inhibition of EPHB4 (unknown origin) at 10 uM after 120 mins P33 radiolabeled kinase activity assay
T1 sequence (whole entry): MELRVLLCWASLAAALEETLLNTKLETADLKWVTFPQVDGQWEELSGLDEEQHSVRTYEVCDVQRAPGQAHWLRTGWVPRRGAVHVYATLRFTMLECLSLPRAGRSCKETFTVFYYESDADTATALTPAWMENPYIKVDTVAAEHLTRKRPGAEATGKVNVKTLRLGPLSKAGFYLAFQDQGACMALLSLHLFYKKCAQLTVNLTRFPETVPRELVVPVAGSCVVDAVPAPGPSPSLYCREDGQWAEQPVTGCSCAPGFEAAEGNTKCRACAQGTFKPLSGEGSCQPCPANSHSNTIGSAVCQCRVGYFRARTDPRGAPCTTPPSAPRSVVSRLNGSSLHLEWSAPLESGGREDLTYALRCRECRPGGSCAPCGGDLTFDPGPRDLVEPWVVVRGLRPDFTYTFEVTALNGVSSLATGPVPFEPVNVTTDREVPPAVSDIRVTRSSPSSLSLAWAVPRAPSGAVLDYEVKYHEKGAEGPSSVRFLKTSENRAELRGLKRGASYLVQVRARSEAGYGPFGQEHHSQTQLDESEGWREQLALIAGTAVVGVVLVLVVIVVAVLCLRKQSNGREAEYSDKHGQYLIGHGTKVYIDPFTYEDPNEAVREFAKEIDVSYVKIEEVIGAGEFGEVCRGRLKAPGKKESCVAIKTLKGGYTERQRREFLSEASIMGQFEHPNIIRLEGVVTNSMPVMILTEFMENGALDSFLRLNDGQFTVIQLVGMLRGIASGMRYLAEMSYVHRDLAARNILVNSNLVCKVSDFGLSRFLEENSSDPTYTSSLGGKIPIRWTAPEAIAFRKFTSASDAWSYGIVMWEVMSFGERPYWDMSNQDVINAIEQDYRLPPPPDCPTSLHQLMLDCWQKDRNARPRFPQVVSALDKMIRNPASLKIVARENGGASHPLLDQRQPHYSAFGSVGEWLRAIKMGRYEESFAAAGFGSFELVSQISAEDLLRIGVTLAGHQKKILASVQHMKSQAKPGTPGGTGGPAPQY

[2] = molecular target: Serine/threonine-protein kinase OSR1 (Homo sapiens) (UniProt O95747); assay: Inhibition of OSR1 (unknown origin) at 10 uM after 120 mins P33 radiolabeled kinase activity assay
Serine/threonine-protein kinase OSR1 (Homo sapiens), sequence (O95747 2-527 limits assumed): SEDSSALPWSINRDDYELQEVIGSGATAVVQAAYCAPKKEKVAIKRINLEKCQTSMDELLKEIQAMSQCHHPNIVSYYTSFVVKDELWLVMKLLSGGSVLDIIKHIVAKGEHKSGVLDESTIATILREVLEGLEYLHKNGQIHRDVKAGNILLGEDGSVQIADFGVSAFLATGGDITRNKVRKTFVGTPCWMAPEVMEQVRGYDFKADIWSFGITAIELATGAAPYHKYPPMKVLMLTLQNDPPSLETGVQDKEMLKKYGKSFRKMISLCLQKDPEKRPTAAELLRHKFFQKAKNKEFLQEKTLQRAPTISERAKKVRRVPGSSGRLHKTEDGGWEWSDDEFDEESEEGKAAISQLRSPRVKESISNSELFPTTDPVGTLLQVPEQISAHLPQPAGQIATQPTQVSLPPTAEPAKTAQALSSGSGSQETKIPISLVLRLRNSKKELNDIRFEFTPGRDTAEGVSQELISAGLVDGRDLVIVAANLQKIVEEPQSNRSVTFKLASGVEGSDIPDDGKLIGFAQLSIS

[3] = molecular target: Tyrosine-protein kinase ABL2 (Homo sapiens) (UniProt P42684); assay: Inhibition of ABL2 (unknown origin) at 10 uM after 120 mins P33 radiolabeled kinase activity assay
Tyrosine-protein kinase ABL2 (Homo sapiens), sequence (P42684 whole entry): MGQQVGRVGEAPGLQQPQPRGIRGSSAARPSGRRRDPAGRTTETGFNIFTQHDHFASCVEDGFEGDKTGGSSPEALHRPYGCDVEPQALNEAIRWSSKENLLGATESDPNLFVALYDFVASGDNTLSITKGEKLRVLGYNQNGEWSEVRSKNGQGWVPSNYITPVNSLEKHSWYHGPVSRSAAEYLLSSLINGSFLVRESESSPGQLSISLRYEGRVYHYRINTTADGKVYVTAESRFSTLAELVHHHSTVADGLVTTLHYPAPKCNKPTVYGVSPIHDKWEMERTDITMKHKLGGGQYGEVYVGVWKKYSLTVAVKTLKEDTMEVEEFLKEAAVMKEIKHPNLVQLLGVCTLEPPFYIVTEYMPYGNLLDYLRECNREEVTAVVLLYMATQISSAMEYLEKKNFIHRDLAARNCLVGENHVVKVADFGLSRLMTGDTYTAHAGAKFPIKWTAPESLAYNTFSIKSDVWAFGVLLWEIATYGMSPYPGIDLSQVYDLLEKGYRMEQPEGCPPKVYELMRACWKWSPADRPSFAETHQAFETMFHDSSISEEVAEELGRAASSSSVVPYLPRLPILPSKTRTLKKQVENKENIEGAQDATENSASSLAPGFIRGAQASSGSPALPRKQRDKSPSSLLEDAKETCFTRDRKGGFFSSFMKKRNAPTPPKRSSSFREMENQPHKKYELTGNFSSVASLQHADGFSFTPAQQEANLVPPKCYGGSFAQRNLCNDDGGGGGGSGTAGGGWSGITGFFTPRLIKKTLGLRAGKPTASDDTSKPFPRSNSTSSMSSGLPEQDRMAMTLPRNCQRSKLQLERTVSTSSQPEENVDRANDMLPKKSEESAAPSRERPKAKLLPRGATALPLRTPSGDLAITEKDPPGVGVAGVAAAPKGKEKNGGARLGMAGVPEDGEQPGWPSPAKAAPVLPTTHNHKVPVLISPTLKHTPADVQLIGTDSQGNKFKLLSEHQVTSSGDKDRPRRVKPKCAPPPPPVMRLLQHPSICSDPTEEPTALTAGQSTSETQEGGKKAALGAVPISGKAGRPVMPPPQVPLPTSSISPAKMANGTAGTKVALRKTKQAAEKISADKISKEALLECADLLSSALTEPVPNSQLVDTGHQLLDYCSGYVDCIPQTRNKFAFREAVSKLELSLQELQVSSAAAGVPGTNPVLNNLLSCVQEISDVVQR

[4] = molecular target: T2, Mitogen-activated protein kinase kinase kinase 6 (Homo sapiens) (UniProt O95382); assay: Inhibition of MEKK6 (unknown origin) at 10 uM after 120 mins P33 radiolabeled kinase activity assay
T2 sequence (whole entry): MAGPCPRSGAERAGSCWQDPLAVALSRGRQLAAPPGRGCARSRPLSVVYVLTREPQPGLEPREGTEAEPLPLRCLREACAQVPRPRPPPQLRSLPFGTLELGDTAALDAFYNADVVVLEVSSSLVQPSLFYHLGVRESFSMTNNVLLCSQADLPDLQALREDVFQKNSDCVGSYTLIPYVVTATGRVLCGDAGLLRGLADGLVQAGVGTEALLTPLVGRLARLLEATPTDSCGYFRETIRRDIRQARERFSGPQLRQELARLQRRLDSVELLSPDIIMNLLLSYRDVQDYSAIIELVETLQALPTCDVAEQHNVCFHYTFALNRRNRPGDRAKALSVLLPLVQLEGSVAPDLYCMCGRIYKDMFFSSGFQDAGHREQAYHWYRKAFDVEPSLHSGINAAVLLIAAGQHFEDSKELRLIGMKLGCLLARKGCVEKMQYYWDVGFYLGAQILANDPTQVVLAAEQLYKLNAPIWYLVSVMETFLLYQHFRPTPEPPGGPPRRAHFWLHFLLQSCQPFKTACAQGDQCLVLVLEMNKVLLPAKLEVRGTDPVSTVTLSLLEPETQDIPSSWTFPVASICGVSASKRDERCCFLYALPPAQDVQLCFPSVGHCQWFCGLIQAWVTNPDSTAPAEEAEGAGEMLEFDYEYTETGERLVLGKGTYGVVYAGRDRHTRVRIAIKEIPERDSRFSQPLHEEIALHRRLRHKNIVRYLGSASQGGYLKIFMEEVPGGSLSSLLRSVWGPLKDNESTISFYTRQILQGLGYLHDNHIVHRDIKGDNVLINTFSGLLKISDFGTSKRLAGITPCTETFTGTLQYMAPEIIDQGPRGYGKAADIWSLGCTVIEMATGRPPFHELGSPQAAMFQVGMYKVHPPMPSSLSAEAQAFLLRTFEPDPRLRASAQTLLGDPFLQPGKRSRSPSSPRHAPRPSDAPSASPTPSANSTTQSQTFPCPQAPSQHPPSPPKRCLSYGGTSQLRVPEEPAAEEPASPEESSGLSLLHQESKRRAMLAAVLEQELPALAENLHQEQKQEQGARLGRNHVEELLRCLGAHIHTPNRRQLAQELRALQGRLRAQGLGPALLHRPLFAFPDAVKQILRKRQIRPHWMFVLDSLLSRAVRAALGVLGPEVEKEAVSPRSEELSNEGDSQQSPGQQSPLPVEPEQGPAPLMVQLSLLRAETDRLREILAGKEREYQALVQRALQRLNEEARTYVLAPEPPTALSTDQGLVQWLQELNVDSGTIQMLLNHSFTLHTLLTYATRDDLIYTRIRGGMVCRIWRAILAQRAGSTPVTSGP

| Structure (SMILES) | inhibition [1] [%] | inhibition [2] [%] | inhibition [3] [%] | inhibition [4] [%] |
| --- | --- | --- | --- | --- |
| CS(=O)(=O)c1cccc(Nc2nccc(-c3sc(N4CCOCC4)nc3-c3cccc(NS(=O)(=O)c4c(F)cccc4F)c3)n2)c1 | 93.8 | 10.1 | 99.8 | -4.09 |
| COCCNC(=O)c1ccc2c(c1)nc(-c1cnc(-c3ccc(Cl)cc3)[nH]1)n2CCOC | 29.3 | 3.1 | 59.3 | -0.42 |
| CC(C)(C)c1cc(NC(=O)Nc2ccc(Oc3ccncc3)cc2)no1 | 96 | 22.6 | 90.1 | 4.35 |
